{"source": "the supplement of paper PMC11208160", "data": [{"assay": "recombinant UMI read abundance after kanamycin selection (control-corrected) (log10(CPM+1)); higher = more efficient recombination; extreme values may be limits of the assay; sequences stand for … in AGTGCAGAGAAAATCGGCCAGTTTTCTCTGCCTGCAGTCCGCATGCCGTGGGACCCCTTGGGTTCTAACCTGTTGCCTAGATTTATGCAGCGGACTGCCTTTCTCCCAAAGTGATAAACCGG…AGGTTGGTTTCACT; site = the 11-nt donor", "method_in_brief": "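In Escherichia coli, a pool of donor and donor-binding-loop pairs, each with a 12-nt UMI, was tested for the IS621 bridge recombinase. Plating was on IPTG (0.07 mM) plus kanamycin, or without selection, in two replicates. Recombinant UMIs were amplified by PCR across the donor–target junction and sequenced, and counts were reported as log10(CPM+1) after averaging and control-derived scaling.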", "values": [{"sequence": "CTACAGACATGGACCGGTTTTCCCGGTAATCCGTATTTGAG (site CTACAGACTCT)", "recombinant UMI read abundance (log10)": 1.81}, {"sequence": "CTACGGCCATGGACCGGTTTTCCCGGTAATCCGTATTTGCC (site CTACGGCCTGG)", "recombinant UMI read abundance (log10)": 0.363}, {"sequence": "CTACGGGCATGGACCGGTTTTCCCGGTAATCCGTATTTGAG (site CTACGGGCTCT)", "recombinant UMI read abundance (log10)": 1.72}, {"sequence": "CTACTACCATGGACCGGTTTTCCCGGTAATCCGTATTTGCT (site CTACTACCTAG)", "recombinant UMI read abundance (log10)": 0.232}, {"sequence": "CTACTACCATGGACCGGTTTTCCCGGTAATCCGTATTTGCT (site CTCCTACCTAG)", "recombinant UMI read abundance (log10)": 0.00711}, {"sequence": "CTACTACCATGGACCGGTTTTCCCGGTAATCCGTATTTGCT (site CTGCTACCTAG)", "recombinant UMI read abundance (log10)": 0.00524}, {"sequence": "CTACTACCATGGACCGGTTTTCCCGGTAATCCGTATTTGCT (site CTTCTACCTAG)", "recombinant UMI read abundance (log10)": 0}, {"sequence": "CTACTACCATGGACCGGTTTTCCCGGTAATCCGTATTTGGA (site CTACTAACTTC)", "recombinant UMI read abundance (log10)": 0.0163}, {"sequence": "CTACTACCATGGACCGGTTTTCCCGGTAATCCGTATTTGGA (site CTACTACCTTC)", "recombinant UMI read abundance (log10)": 0.00874}, {"sequence": "CTACTACCATGGACCGGTTTTCCCGGTAATCCGTATTTGGA (site CTACTAGCTTC)", "recombinant UMI read abundance (log10)": 0.00519}, {"sequence": "CTACTACCATGGACCGGTTTTCCCGGTAATCCGTATTTGGA (site CTACTATCTTC)", "recombinant UMI read abundance (log10)": 1.1}, {"sequence": "CTACTAGCATGGACCGGTTTTCCCGGTAATCCGTATTTGAA (site CTACTAGCTTT)", "recombinant UMI read abundance (log10)": 1.95}, {"sequence": "CTACTATCATGGACCGGTTTTCCCGGTAATCCGTATTTGAC (site CTAATATCTGT)", "recombinant UMI read abundance (log10)": 0}, {"sequence": "CTACTATCATGGACCGGTTTTCCCGGTAATCCGTATTTGAC (site CTACTATCTGT)", "recombinant UMI read abundance (log10)": 2.69}, {"sequence": "CTACTATCATGGACCGGTTTTCCCGGTAATCCGTATTTGAC (site CTAGTATCTGT)", "recombinant UMI read abundance (log10)": 0}, {"sequence": "CTACTATCATGGACCGGTTTTCCCGGTAATCCGTATTTGAC (site CTATTATCTGT)", "recombinant UMI read abundance (log10)": 0.0113}, {"sequence": "CTAGAACCATGGACCGGTTTTCCCGGTAATCCGTATTTGAG (site CTAGAACCTCT)", "recombinant UMI read abundance (log10)": 0.09}, {"sequence": "CTAGCAGCATGGACCGGTTTTCCCGGTAATCCGTATTTGAC (site CTAGCAGCTGT)", "recombinant UMI read abundance (log10)": 3.18}, {"sequence": "CTAGCAGCATGGACCGGTTTTCCCGGTAATCCGTATTTGAC (site CTAGTATCTGT)", "recombinant UMI read abundance (log10)": 0}, {"sequence": "CTAGCATCATGGACCGGTTTTCCCGGTAATCCGTATTTGAA (site CTAGCATCTTT)", "recombinant UMI read abundance (log10)": 2.86}, {"sequence": "CTAGCATCATGGACCGGTTTTCCCGGTAATCCGTATTTGAA (site CTAGTATCTGT)", "recombinant UMI read abundance (log10)": 0}, {"sequence": "CTAGCGTCATGGACCGGTTTTCCCGGTAATCCGTATTTGGA (site CTAGCGTCTTC)", "recombinant UMI read abundance (log10)": 2.45}, {"sequence": "CTAGGCACATGGACCGGTTTTCCCGGTAATCCGTATTTGCA (site CTAGGCACTTG)", "recombinant UMI read abundance (log10)": 1.67}, {"sequence": "CTAGGGGCATGGACCGGTTTTCCCGGTAATCCGTATTTGTG (site CTAGGGGCTCA)", "recombinant UMI read abundance (log10)": 1.23}, {"sequence": "CTAGTAACATGGACCGGTTTTCCCGGTAATCCGTATTTGGA (site CTAATAACTTC)", "recombinant UMI read abundance (log10)": 1.33}, {"sequence": "CTAGTAACATGGACCGGTTTTCCCGGTAATCCGTATTTGGA (site CTACTAACTTC)", "recombinant UMI read abundance (log10)": 0.119}, {"sequence": "CTAGTAACATGGACCGGTTTTCCCGGTAATCCGTATTTGGA (site CTAGTAACTTC)", "recombinant UMI read abundance (log10)": 1.98}, {"sequence": "CTAGTAACATGGACCGGTTTTCCCGGTAATCCGTATTTGGA (site CTATTAACTTC)", "recombinant UMI read abundance (log10)": 0.00934}, {"sequence": "CTAGTACCATGGACCGGTTTTCCCGGTAATCCGTATTTGAT (site CTAGTACCTAT)", "recombinant UMI read abundance (log10)": 0}, {"sequence": "CTAGTACCATGGACCGGTTTTCCCGGTAATCCGTATTTGAT (site CTAGTATCTGT)", "recombinant UMI read abundance (log10)": 1.35}, {"sequence": "CTAGTAGCATGGACCGGTTTTCCCGGTAATCCGTATTTGCC (site CTAGTAGCTGG)", "recombinant UMI read abundance (log10)": 1.64}, {"sequence": "CTAGTAGCATGGACCGGTTTTCCCGGTAATCCGTATTTGCC (site CTAGTATCTGT)", "recombinant UMI read abundance (log10)": 0}, {"sequence": "CTAGTATCATGGACCGGTTTTCCCGGTAATCCGTATTTGCC (site CTAGTATCTGA)", "recombinant UMI read abundance (log10)": 2.78}, {"sequence": "CTAGTATCATGGACCGGTTTTCCCGGTAATCCGTATTTGCC (site CTAGTATCTGC)", "recombinant UMI read abundance (log10)": 2.28}, {"sequence": "CTAGTATCATGGACCGGTTTTCCCGGTAATCCGTATTTGCC (site CTAGTATCTGG)", "recombinant UMI read abundance (log10)": 3.09}, {"sequence": "CTAGTATCATGGACCGGTTTTCCCGGTAATCCGTATTTGCC (site CTAGTATCTGT)", "recombinant UMI read abundance (log10)": 2.66}, {"sequence": "CTAGTGTCATGGACCGGTTTTCCCGGTAATCCGTATTTGAT (site CTAGTATCTGT)", "recombinant UMI read abundance (log10)": 1.55}, {"sequence": "CTAGTGTCATGGACCGGTTTTCCCGGTAATCCGTATTTGAT (site CTAGTGTCTAT)", "recombinant UMI read abundance (log10)": 2.25}, {"sequence": "CTAGTGTCATGGACCGGTTTTCCCGGTAATCCGTATTTGGC (site CTAGTATCTGT)", "recombinant UMI read abundance (log10)": 1.29}, {"sequence": "CTAGTGTCATGGACCGGTTTTCCCGGTAATCCGTATTTGGC (site CTAGTGTCTGC)", "recombinant UMI read abundance (log10)": 2.17}, {"sequence": "CTAGTGTCATGGACCGGTTTTCCCGGTAATCCGTATTTGGT (site CTAGTGTCTAC)", "recombinant UMI read abundance (log10)": 2.6}, {"sequence": "CTATACACATGGACCGGTTTTCCCGGTAATCCGTATTTGCT (site CTATACACTAG)", "recombinant UMI read abundance (log10)": 2.38}, {"sequence": "CTATACACATGGACCGGTTTTCCCGGTAATCCGTATTTGCT (site CTCTACACTAG)", "recombinant UMI read abundance (log10)": 1.53}, {"sequence": "CTATACACATGGACCGGTTTTCCCGGTAATCCGTATTTGCT (site CTGTACACTAG)", "recombinant UMI read abundance (log10)": 0.705}, {"sequence": "CTATACACATGGACCGGTTTTCCCGGTAATCCGTATTTGCT (site CTTTACACTAG)", "recombinant UMI read abundance (log10)": 0.92}, {"sequence": "CTATACTCATGGACCGGTTTTCCCGGTAATCCGTATTTGTT (site CTATACTCTAA)", "recombinant UMI read abundance (log10)": 3.11}, {"sequence": "CTATATACATGGACCGGTTTTCCCGGTAATCCGTATTTGAC (site CTATATACTGT)", "recombinant UMI read abundance (log10)": 3.02}, {"sequence": "CTATCAACATGGACCGGTTTTCCCGGTAATCCGTATTTGCT (site CGATCATCTAG)", "recombinant UMI read abundance (log10)": 0.00622}, {"sequence": "CTATCAACATGGACCGGTTTTCCCGGTAATCCGTATTTGCT (site CTATCAACTAG)", "recombinant UMI read abundance (log10)": 1.92}, {"sequence": "CTATCATCATGGACCGGTTTTCCCGGTAATCCGTATTTGGT (site CGATCATCTAG)", "recombinant UMI read abundance (log10)": 0}, {"sequence": "CTATCATCATGGACCGGTTTTCCCGGTAATCCGTATTTGGT (site CTATCATCTAC)", "recombinant UMI read abundance (log10)": 0.706}, {"sequence": "CTATCCTCATGGACCGGTTTTCCCGGTAATCCGTATTTGAA (site CTATCCTCTTT)", "recombinant UMI read abundance (log10)": 2.6}, {"sequence": "CTATTCCCATGGACCGGTTTTCCCGGTAATCCGTATTTGCT (site CAATTCCCTAG)", "recombinant UMI read abundance (log10)": 0.77}, {"sequence": "CTATTCCCATGGACCGGTTTTCCCGGTAATCCGTATTTGCT (site CCATTCCCTAG)", "recombinant UMI read abundance (log10)": 1.43}, {"sequence": "CTATTCCCATGGACCGGTTTTCCCGGTAATCCGTATTTGCT (site CGATTCCCTAG)", "recombinant UMI read abundance (log10)": 0.475}, {"sequence": "CTATTCCCATGGACCGGTTTTCCCGGTAATCCGTATTTGCT (site CTATTCCCTAG)", "recombinant UMI read abundance (log10)": 0.845}, {"sequence": "CTCAACACATGGACCGGTTTTCCCGGTAATCCGTATTTGCT (site CTCAACACTAG)", "recombinant UMI read abundance (log10)": 2}, {"sequence": "CTCAACACATGGACCGGTTTTCCCGGTAATCCGTATTTGCT (site CTCCACACTAG)", "recombinant UMI read abundance (log10)": 0.438}, {"sequence": "CTCAACACATGGACCGGTTTTCCCGGTAATCCGTATTTGCT (site CTCGACACTAG)", "recombinant UMI read abundance (log10)": 0.368}, {"sequence": "CTCAACACATGGACCGGTTTTCCCGGTAATCCGTATTTGCT (site CTCTACACTAG)", "recombinant UMI read abundance (log10)": 1.23}, {"sequence": "CTCAAGCCATGGACCGGTTTTCCCGGTAATCCGTATTTGAG (site CTCAAGCCTCT)", "recombinant UMI read abundance (log10)": 0}, {"sequence": "CTCAGAACATGGACCGGTTTTCCCGGTAATCCGTATTTGCC (site CTCAGAACTGG)", "recombinant UMI read abundance (log10)": 1.47}, {"sequence": "CTCAGACCATGGACCGGTTTTCCCGGTAATCCGTATTTGCG (site CTCAGACCTCG)", "recombinant UMI read abundance (log10)": 0}, {"sequence": "CTCAGGACATGGACCGGTTTTCCCGGTAATCCGTATTTGAG (site CTCAGGACTCT)", "recombinant UMI read abundance (log10)": 0}, {"sequence": "CTCCACACATGGACCGGTTTTCCCGGTAATCCGTATTTGCT (site CTCAACACTAG)", "recombinant UMI read abundance (log10)": 0}, {"sequence": "CTCCACACATGGACCGGTTTTCCCGGTAATCCGTATTTGCT (site CTCCACACTAG)", "recombinant UMI read abundance (log10)": 2.08}, {"sequence": "CTCCACACATGGACCGGTTTTCCCGGTAATCCGTATTTGCT (site CTCGACACTAG)", "recombinant UMI read abundance (log10)": 0}, {"sequence": "CTCCACACATGGACCGGTTTTCCCGGTAATCCGTATTTGCT (site CTCTACACTAG)", "recombinant UMI read abundance (log10)": 1.54}, {"sequence": "CTCCACGCATGGACCGGTTTTCCCGGTAATCCGTATTTGTT (site CTCCACGCTAA)", "recombinant UMI read abundance (log10)": 1.57}, {"sequence": "CTCCCGACATGGACCGGTTTTCCCGGTAATCCGTATTTGGA (site CTCCCGACTTC)", "recombinant UMI read abundance (log10)": 0.231}, {"sequence": "CTCCCTACATGGACCGGTTTTCCCGGTAATCCGTATTTGTG (site CTCCCTACTCA)", "recombinant UMI read abundance (log10)": 0.525}, {"sequence": "CTCCCTACATGGACCGGTTTTCCCGGTAATCCGTATTTGTG (site CTCCCTACTCC)", "recombinant UMI read abundance (log10)": 0.617}, {"sequence": "CTCCCTACATGGACCGGTTTTCCCGGTAATCCGTATTTGTG (site CTCCCTACTCG)", "recombinant UMI read abundance (log10)": 0.143}, {"sequence": "CTCCCTACATGGACCGGTTTTCCCGGTAATCCGTATTTGTG (site CTCCCTACTCT)", "recombinant UMI read abundance (log10)": 0.00616}, {"sequence": "CTCCGTACATGGACCGGTTTTCCCGGTAATCCGTATTTGCT (site CACCGTACTAG)", "recombinant UMI read abundance (log10)": 1.41}]}]}
